Values quoted from earlier work in patent publication US6797472B1, “Variation in drug response related to polymorphisms in β2-adrenergic receptor” (Genaissance Pharmaceuticals, Inc., priority 1999, dated 2004).

Tests used:
Ile164 receptor [1] = molecular target: T1, Ile164 receptor (Homo sapiens, UniProt P07550, T164I); conditions: competition binding with [125I]cyp in the presence of GTP; reference 4
Ile164 receptor [2] = molecular target: T1, Ile164 receptor; conditions: previous studies

| Compound | binding affinity at Ile164 receptor (Ile164 receptor [1]) | stimulation of adenylyl cyclase by Ile164 receptor compared to Thr164 receptor (Ile164 receptor [2]) |
| --- | --- | --- |
| NCCc1ccc(O)c(O)c1 [dopamine] | normal binding affinities | does not show decreased stimulation |
| CNC[C@H](O)c1ccc(O)c(O)c1 [epinephrine] | small decrease in binding affinity | decreased stimulation |
| NC[C@H](O)c1ccc(O)c(O)c1 [norepinephrine] | small decrease in binding affinity |  |
